US8541343B2, “Chemical compounds and their use as pesticides” (Syngenta Crop Protection, Inc., priority 2009, dated 2013)

melting point	SMILES
80 to 85 °C	Cc1cc(C)c(C2C(=O)N(N(C)C)C3(CCN(N(C)C)CC3)C2=O)c(C)c1 (centres unmarked) [Compound A1, 1,8-Bis-dimethylamino-3-(2,4,6-trimethyl-phenyl)-1,8-diaza-spiro[4.5]decane-2,4-dione]
105 °C	CCOC(=O)OC1=C(c2c(C)cc(C)cc2C)C(=O)N(N(C)C)C12CCN(N(C)C)CC2 [Compound A2, Carbonic acid 1,8-bis-dimethylamino-2-oxo-3-(2,4,6-trimethyl-phenyl)-1,8-diaza-spiro[4.5]dec-3-en-4-yl ester ethyl ester]
